# Laboratory results taken from patent US20010016560A1, “Herbicidal compositions” (priority 1998, published 2001).
# Legend:
# ECHCG [1] = assay: Field test Brazil, pre-emergence, heavy clay soil (Example 1); assay type: in vivo; settings: 95 days after treatment vs untreated plot, g/ha: Cpd A 150, Tebuthiuron 500, mix 500+150
# Experimental: (§1) [0042] The following test was conducted in Brazil: Tebuthiuron (used as the commercial formulation “Combine™”, a suspension concentrate containing […] active ingredient) and 5-cyclopropyl-4-(2-methylsulfonyl-4-trifluoromethyl)benzoylisoxazole (isoxaflutole, hereafter referred to as Compound A), which was formulated as wettable granules, were sprayed alone and in tank mix combination (spray rate 300 l/ha) to a plot 5 meters by 3 meters pre-emergence of the weeds and ratoon sugarcane (varieties RB72 454 and […]). The soil was a heavy clay soil containing 1.8% organic matter, […] (pH 5.3) and had been sown on the same day as application with the weed species (the application was made to the ratoon cane about 90 days after cutting and before re-growth). Visual assessment was made 95 days after treatment in comparison with an untreated control plot. Two replicates were performed.
# BRAPL [2] = assay: as above; assay type: in vivo; settings: 95 days after treatment vs untreated plot, g/ha: Cpd A 150, Tebuthiuron 500, mix 500+150
# Experimental: as §1
# DIGHO [3] = assay: as above; assay type: in vivo; settings: 95 days after treatment vs untreated plot, g/ha: Cpd A 150, Tebuthiuron 500, mix 500+150
# Experimental: as §1
# PANMA = assay: as above; assay type: in vivo; settings: 95 days after treatment vs untreated plot, g/ha: Cpd A 150, Tebuthiuron 500, mix 500+150
# Experimental: as §1
# AMASP [4] = assay: as above; assay type: in vivo; settings: 95 days after treatment vs untreated plot, g/ha: Cpd A 150, Tebuthiuron 500, mix 500+150
# Experimental: as §1
# ELEIN [5] = assay: as above; assay type: in vivo; settings: 95 days after treatment vs untreated plot, g/ha: Cpd A 150, Tebuthiuron 500, mix 500+150
# Experimental: as §1
# ECHCG [6] = assay: Field test Brazil, pre-emergence, light sandy soil (Example 2); assay type: in vivo; settings: 95 days after treatment vs untreated plot, g/ha: Cpd A 150, Tebuthiuron 500, mix 500+150
# Experimental: as §1
# (§2) [0044] The following test was conducted in Brazil following the same procedure as described in Example 1 above but where the soil type was light sandy containing 1.8% organic matter, 82% sand and 13% clay (pH 5.3). Again, two replicates were performed.
# BRAPL [7] = assay: as above; assay type: in vivo; settings: 95 days after treatment vs untreated plot, g/ha: Cpd A 150, Tebuthiuron 500, mix 500+150
# Experimental: as §1, §2
# DIGHO [8] = assay: as above; assay type: in vivo; settings: 95 days after treatment vs untreated plot, g/ha: Cpd A 150, Tebuthiuron 500, mix 500+150
# Experimental: as §1, §2
# SIDRH = assay: as above; assay type: in vivo; settings: 95 days after treatment vs untreated plot, g/ha: Cpd A 150, Tebuthiuron 500, mix 500+150
# Experimental: as §1, §2
# AMASP [9] = assay: as above; assay type: in vivo; settings: 95 days after treatment vs untreated plot, g/ha: Cpd A 150, Tebuthiuron 500, mix 500+150
# Experimental: as §1, §2
# ELEIN [10] = assay: as above; assay type: in vivo; settings: 95 days after treatment vs untreated plot, g/ha: Cpd A 150, Tebuthiuron 500, mix 500+150
# Experimental: as §1, §2
# SACOF RB68 5089 [11] = assay: Field test Brazil, crop effect, heavy clay soil (Example 1); assay type: in vivo, ratoon sugarcane
# Experimental: as §1
# SACOF RB72 454 [12] = assay: as above; assay type: in vivo, ratoon sugarcane
# Experimental: as §1
# SACOF RB68 5089 [13] = assay: Field test Brazil, crop effect, light sandy soil (Example 2); assay type: in vivo, ratoon sugarcane
# Experimental: as §1, §2
# SACOF RB72 454 [14] = assay: as above; assay type: in vivo, ratoon sugarcane
# Experimental: as §1, §2
# [15] = pre-emergence, 95 days after treatment vs untreated plot, heavy clay soil, g/ha: Cpd A 150, Tebuthiuron 500, mix 500+150
# [16] = pre-emergence, 95 days after treatment vs untreated plot, light sandy soil, g/ha: Cpd A 150, Tebuthiuron 500, mix 500+150
SMILES,Visual assessment ECHCG (ECHCG [1]),Visual assessment BRAPL (BRAPL [2]),Visual assessment DIGHO (DIGHO [3]),Visual assessment PANMA (PANMA),Visual assessment AMASP (AMASP [4]),Visual assessment ELEIN (ELEIN [5]),Visual assessment ECHCG (ECHCG [6]),Visual assessment BRAPL (BRAPL [7]),Visual assessment DIGHO (DIGHO [8]),Visual assessment SIDRH (SIDRH),Visual assessment AMASP (AMASP [9]),Visual assessment ELEIN (ELEIN [10]),Visual assessment SACOF RB68 5089 (crop) (SACOF RB68 5089 [11]; in vivo),Visual assessment SACOF RB72 454 (crop) (SACOF RB72 454 [12]; in vivo),Visual assessment SACOF RB68 5089 (crop) (SACOF RB68 5089 [13]; in vivo),Visual assessment SACOF RB72 454 (crop) (SACOF RB72 454 [14]; in vivo),Visual assessment SACOF RB68 5089 (crop) (SACOF RB68 5089 [11]; [15]),Visual assessment SACOF RB72 454 (crop) (SACOF RB72 454 [12]; [15]),Visual assessment SACOF RB68 5089 (crop) (SACOF RB68 5089 [13]; [16]),Visual assessment SACOF RB72 454 (crop) (SACOF RB72 454 [14]; [16])
"CS(=O)(=O)c1cc(C(F)(F)F)ccc1C(=O)c1cnoc1C1CC1 [Cpd A, 5-cyclopropyl-4-(2-methylsulfonyl-4-trifluoromethyl)benzoylisoxazole]",50,70,75,85,80,85,20,15,20,10,27.5,30,0,0,0,0,–,–,–,–
CNC(=O)N(C)c1nnc(C(C)(C)C)s1 [Tebuthiuron],10,10,10,5,75,20,15,20,20,60,70,20,–,–,–,–,0,0,0,0
